{"source": "patent US20240109881A1", "about": "“Heteroaryl Compounds as Ligand Directed Degraders of IRAK4” (Bristol-Myers Squibb Company, priority 2022, published 2024)"}
{"target": "T1, IRAK4 (Homo sapiens, UniProt Q9NWZ3)", "T1 construct": "endogenous in cells; host or cells: THP-1 cells", "T1 sequence (Q9NWZ3 1-460)": "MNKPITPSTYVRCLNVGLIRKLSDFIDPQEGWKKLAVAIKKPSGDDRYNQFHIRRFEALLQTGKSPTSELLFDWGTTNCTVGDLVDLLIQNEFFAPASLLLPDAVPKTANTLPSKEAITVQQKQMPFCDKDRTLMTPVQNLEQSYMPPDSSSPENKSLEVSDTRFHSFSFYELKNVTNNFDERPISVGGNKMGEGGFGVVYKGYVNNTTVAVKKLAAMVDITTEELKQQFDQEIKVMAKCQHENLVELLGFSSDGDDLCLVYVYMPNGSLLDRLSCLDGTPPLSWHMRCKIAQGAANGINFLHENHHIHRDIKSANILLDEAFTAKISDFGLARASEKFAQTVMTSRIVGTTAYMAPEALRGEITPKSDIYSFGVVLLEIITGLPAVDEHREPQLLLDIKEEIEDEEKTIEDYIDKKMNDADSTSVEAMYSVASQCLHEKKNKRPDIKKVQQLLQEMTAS", "experiment": "ALE THP1 HTRF (Advanced Lipoxidation End Product THP1 Homogeneous Time Resolved Fluorescence)", "format": "cell-based", "settings": "THP1 cells", "procedure": "For Homogenous Time Resolved Fluorescence (HTRF) assays, a Cisbio HTRF kit was used, which included: Lysis Buffer #1 4×, Blocking Reagent #3 100×, 20× Antibody 1 (Anti-IRAK4 d2), 20× Antibody 2 (Anti-IRAK4 k), and Detection Buffer.\n4× Lysis Buffer was stored at 4° C. For use as 1× Lysis buffer, the 4× solution was diluted with de-ionized water (distilled water, Gibco Cat. #15230279) and 100× Blocking Reagent in a 1:3:0.04 volume ratio.\n20× Antibody Solution aliquots were stored in −80° C. and the Detection Buffer was stored in 4° C. For use as a 1× Antibody Solution, the 20× Antibody Solution aliquot was diluted with Detection Buffer in a 1:19 volume ratio.\nCells were lysed at room temperature for 45 min with shaking. A BCA protein assay was performed and normalization was conducted to the desired total protein concentration with 1× lysis buffer. Next, 1× Antibody Solutions were prepared by adding 380 μL Detection Buffer to 20 μL 20× Antibody Solution aliquots and mixing well. 1× Antibody Solutions were combined 1:1 and briefly vortexed. For control wells, 20 μL 1× anti IRAK4-k Antibody Solution was saved. The 384-well plate (ProxiPlate-384 Plus, Perkin Elmer Cat. #6008289) was loaded by adding 4 μL of the mixed Antibody Solution to empty wells using a single channel repeater. Using a multi-channel repeater, 16 μL lysate was added per well, and any bubbles that were formed were popped with 20 μL pipette tips and Kimwipe edges. In column 10, triplicates of each control was prepared. In wells A10, B10, and C10, buffer control was prepared by adding 16 μL Lysis Buffer and 4 μL Detection Buffer. In wells D10, E10, and F10, cryptate control was prepared by adding 16 μL Lysis Buffer, 2 μL Detection Buffer, and 2 μL 1× anti IRAK4-k Antibody Solution. In wells G10, H10, and I10, a negative control was prepared by adding 16 μL Lysis Buffer and 4 μL mixed Antibody Solution. The plate was sealed with a clear seal and covered with an aluminum lid. The plate was spun down at 800 g for 5 min and incubated in the dark at room temperature overnight. The next day, the plate was spun down at 800 g for 5 min. The samples were analyzed by a plate reader (Envision, PerkinElmer) using the Desnor 384 HTRF program.", "units": {"ALE THP1 HTRF YMIN": "%", "EC50": "nM"}}
{"molecule": "O=C1CCC(c2ccc(NCC3CCN(C(=O)C4CCC(NC(=O)c5cnc(Nc6ccc7ncsc7c6)cc5NC5CCCC5)CC4)CC3)cc2)C(=O)N1", "note": "(stereo not shown) [P-11]", "ALE THP1 HTRF YMIN": 47.5, "EC50": 1}
{"molecule": "O=C1CCC(N2C(=O)c3ccc(N4CCN(C(=O)C5CCC(NC(=O)c6cnc(Nc7ccc8ncoc8c7)cc6NC6CCCC6)CC5)CC4)cc3C2=O)C(=O)N1", "note": "(stereo not shown) [P-12]", "ALE THP1 HTRF YMIN": 47.7}
{"molecule": "C[C@@H]1CN(c2ccc3c(c2)C(=O)N(C2CCC(=O)NC2=O)C3=O)C[C@H](C)N1C(=O)C1CCC(NC(=O)c2cnc(-n3ncc4cc(C#N)cnc43)cc2NC2CCCC2)CC1", "note": "(stereo partly shown) [P-13]", "ALE THP1 HTRF YMIN": 43.4, "EC50": 82}
{"molecule": "N#Cc1cnc2c(cnn2-c2cc(NC3CCCC3)c(C(=O)NC3CCC(C(=O)N4CCC(c5ccc6c(c5)C(=O)N(C5CCC(=O)NC5=O)C6)CC4)CC3)cn2)c1", "note": "(stereo not shown) [P-14]", "ALE THP1 HTRF YMIN": 24.0, "EC50": 95}
{"molecule": "CC(C)Nc1cc(-n2ncc3cc(C#N)cnc32)ncc1C(=O)N[C@H]1CC[C@H](CN2CCN(c3ccc4c(c3)C(=O)N(C3CCC(=O)NC3=O)C4)CC2)CC1", "note": "(stereo partly shown) [P-15]", "ALE THP1 HTRF YMIN": 31.8, "EC50": 26}
{"molecule": "N#Cc1cnc2c(cnn2-c2cc(NC3CCCC3)c(-c3cn([C@H]4CC[C@H](NC(=O)C5CCN(c6ccc7c(c6)C(=O)N(C6CCC(=O)NC6=O)C7)CC5)CC4)nn3)cn2)c1", "note": "(stereo partly shown) [P-16, N-((1r,4r)-4-(4-(6-(5-cyano-1H-pyrazolo[3,4-b]pyridin-1-yl)-4-(cyclopentylamino)pyridin-3-yl)-1H-1,2,3-triazol-1-yl)cyclohexyl)-1-(2-(2,6-dioxopiperidin-3-yl)-3-oxoisoindolin-5-yl)piperidine-4-carboxamide]", "ALE THP1 HTRF YMIN": 26.9, "EC50": 16}
{"molecule": "N#Cc1cnc2c(cnn2-c2cc(NC3CCCC3)c(C(=O)N[C@H]3CC[C@H](CN4CCN(c5ccc6c(c5)C(=O)N(C5CCC(=O)NC5=O)C6)CC4)CC3)cn2)c1", "note": "(stereo partly shown) [P-17]", "ALE THP1 HTRF YMIN": 24.6, "EC50": 13}
{"molecule": "N#Cc1cnc2c(cnn2-c2cc(NC3CCCC3)c(C(=O)N[C@H]3CC[C@H](CN4CCN(c5ccc6c(c5)C(=O)N(C5CCC(=O)NC5=O)C6=O)CC4)CC3)cn2)c1", "note": "(stereo partly shown) [P-18]", "ALE THP1 HTRF YMIN": 36.9, "EC50": 37}
{"molecule": "CN(C(=O)C1CCN(c2ccc3c(c2)C(=O)N(C2CCC(=O)NC2=O)C3)CC1)C1CCC(n2cc(-c3cnc(-n4ncc5cc(C#N)cnc54)cc3NC3CCCC3)nn2)CC1", "note": "(stereo not shown) [P-19]", "ALE THP1 HTRF YMIN": 38.0, "EC50": 17}
{"molecule": "N#Cc1cnc2c(cnn2-c2cc(NC3CCCC3)c(C(=O)NC3CCC(C(=O)Nc4ccc(C(=O)Nc5ccc(C6CCC(=O)NC6=O)cc5)cc4)CC3)cn2)c1", "note": "(stereo not shown) [P-20]", "ALE THP1 HTRF YMIN": 30.9, "EC50": 1630}
{"molecule": "C[C@@H]1CN(C(=O)C2CCC(NC(=O)c3cnc(-n4ncc5cc(C#N)cnc54)cc3NC3CCCC3)CC2)CCN1c1ccc2c(c1)C(=O)N(C1CCC(=O)NC1=O)C2=O", "note": "(stereo partly shown) [P-21]", "ALE THP1 HTRF YMIN": 40.3, "EC50": 22}
{"molecule": "N#Cc1cnc2c(cnn2-c2cc(NC3CC3)c(C(=O)NC3CCC(C(=O)N4CCN(c5ccc6c(c5)C(=O)N(C5CCC(=O)NC5=O)C6)CC4)CC3)cn2)c1", "note": "(stereo not shown) [P-22]", "ALE THP1 HTRF YMIN": 20.0, "EC50": 1110}
{"molecule": "N#Cc1cnc2c(cnn2-c2cc(NC3CCCC3)c(C(=O)NC3CCC(CC(=O)N4CCN(c5ccc(C6CCC(=O)NC6=O)cc5)CC4)CC3)cn2)c1", "note": "(stereo not shown) [P-23]", "ALE THP1 HTRF YMIN": 34.8, "EC50": 20}
{"molecule": "N#Cc1cnc2c(cnn2-c2cc(NC3CCCC3)c(C(=O)N[C@H]3CC[C@H](CN4CCN(c5ccc6c(c5)C(=O)N(C5CCC(=O)NC5=O)C6)CC4)CC3)cn2)c1", "note": "(stereo partly shown) [P-24]", "ALE THP1 HTRF YMIN": 35.3, "EC50": 324}
{"molecule": "CC1(Nc2cc(-n3ncc4cc(C#N)cnc43)ncc2C(=O)NC2CCC(C(=O)N3CCN(c4ccc5c(c4)C(=O)N(C4CCC(=O)NC4=O)C5)CC3)CC2)CC1", "note": "(stereo not shown) [P-25]", "ALE THP1 HTRF YMIN": 20.1, "EC50": 12}
{"molecule": "CC(C)(C)Nc1cc(-n2ncc3cc(C#N)cnc32)ncc1C(=O)NC1CCC(C(=O)N2CCN(c3ccc4c(c3)C(=O)N(C3CCC(=O)NC3=O)C4)CC2)CC1", "note": "(stereo not shown) [P-26]", "ALE THP1 HTRF YMIN": 22.3, "EC50": 24}
{"molecule": "CN(C1CCN(c2ccc3c(c2)C(=O)N(C2CCC(=O)NC2=O)C3)CC1)[C@H]1CC[C@H](n2cc(-c3cnc(-n4ncc5cc(C#N)cnc54)cc3NC3CCCC3)nn2)CC1", "note": "(stereo partly shown) [P-27]", "ALE THP1 HTRF YMIN": 28.4, "EC50": 40}
{"molecule": "N#Cc1cnc2c(cnn2-c2cc(NC3CCCC3)c(C(=O)NC3CCC(C(=O)NC4CCN(c5ccc(C6CCC(=O)NC6=O)cc5)CC4)CC3)cn2)c1", "note": "(stereo not shown) [P-28]", "ALE THP1 HTRF YMIN": 36.6, "EC50": 145}
{"molecule": "N#Cc1cnc2c(cnn2-c2cc(NC3CCCC3)c(C(=O)N[C@H]3CC[C@H](CNC4CCN(c5ccc(C6CCC(=O)NC6=O)cc5)CC4)CC3)cn2)c1", "note": "(stereo partly shown) [P-29]", "ALE THP1 HTRF YMIN": 14.1, "EC50": 98}
{"molecule": "N#Cc1cnc2c(cnn2-c2cc(NC3CCCC3)c(C(=O)NC3CCC(O)(CN4CCN(c5ccc6c(c5)C(=O)N(C5CCC(=O)NC5=O)C6=O)CC4)CC3)cn2)c1", "note": "(stereo not shown) [P-30, 6-(5-cyano-1H-pyrazolo[3,4-b]pyridin-1-yl)-4-(cyclopentylamino)-N-((1s,4s)-4-((4-(2-(2,6-dioxopiperidin-3-yl)-1,3-dioxoisoindolin-5-yl)piperazin-1-yl)methyl)-4-hydroxycyclohexyl)nicotinamide]", "ALE THP1 HTRF YMIN": 44.1, "EC50": 3320}
{"molecule": "N#Cc1cnc2c(cnn2-c2cc(NC3CCCC3)c(C(=O)NC3CCC(CN4CCC(C(=O)Nc5ccc(C6CCC(=O)NC6=O)cc5)CC4)CC3)cn2)c1", "note": "(stereo not shown) [P-31]", "ALE THP1 HTRF YMIN": 18.2, "EC50": 60}
{"molecule": "C[C@@H]1CN(c2ccc3c(c2)C(=O)N(C2CCC(=O)NC2=O)C3=O)C[C@H](C)N1CC1CCC(NC(=O)c2cnc(-n3ncc4cc(C#N)cnc43)cc2NC2CCCC2)CC1", "note": "(stereo partly shown) [P-32]", "ALE THP1 HTRF YMIN": 21.0, "EC50": 547}
{"molecule": "N#Cc1cnc2c(cnn2-c2cc(NC3CCCC3)c(-n3cc(C4CCC(NC(=O)C5CCN(c6ccc7c(c6)C(=O)N(C6CCC(=O)NC6=O)C7)CC5)CC4)nn3)cn2)c1", "note": "(stereo not shown) [P-33]", "ALE THP1 HTRF YMIN": 15.9, "EC50": 8}
{"molecule": "N#Cc1cnc2c(cnn2-c2cc(NC3CCCC3)c(-c3cn([C@H]4CC[C@H](CN5CCC(C(=O)Nc6ccc(N7CCC(=O)NC7=O)cc6)CC5)CC4)nn3)cn2)c1", "note": "[P-34]", "ALE THP1 HTRF YMIN": 12.9, "EC50": 597}
{"molecule": "N#Cc1cnc2c(cnn2-c2cc(NC3CCCC3)c(C(=O)NC3CCC(CCN4CCN(c5ccc(C6CCC(=O)NC6=O)cc5)CC4)CC3)cn2)c1", "note": "(stereo not shown) [P-35]", "ALE THP1 HTRF YMIN": 8.4, "EC50": 41}
{"molecule": "CC([C@H]1CC[C@H](NC(=O)c2cnc(-n3ncc4cc(C#N)cnc43)cc2NC2CCCC2)CC1)N1CCN(c2ccc3c(c2)C(=O)N(C2CCC(=O)NC2=O)C3)CC1", "note": "(stereo partly shown) [P-36]", "ALE THP1 HTRF YMIN": 10.7, "EC50": 47}
{"molecule": "C[C@H]1CN(c2ccc3c(c2)C(=O)N(C2CCC(=O)NC2=O)C3=O)C[C@H](C)N1CC1CCC(NC(=O)c2cnc(-n3ncc4cc(C#N)cnc43)cc2NC2CCCC2)CC1", "note": "(stereo partly shown) [P-37]", "ALE THP1 HTRF YMIN": 20.7, "EC50": 132}
{"molecule": "CN(c1ccc2c(c1)C(=O)N(C1CCC(=O)NC1=O)C2=O)C1CCN(C[C@H]2CC[C@H](NC(=O)c3cnc(-n4ncc5cc(C#N)cnc54)cc3NC3CCCC3)CC2)CC1", "note": "(stereo partly shown) [P-38]", "ALE THP1 HTRF YMIN": 24.3, "EC50": 119}
{"molecule": "N#Cc1cnc2c(cnn2-c2cc(NC3CCCC3)c(C(=O)NC3CCC(CN4CC5(CCN(c6ccc(C7CCC(=O)NC7=O)cc6)CC5)C4)CC3)cn2)c1", "note": "(stereo not shown) [P-39]", "ALE THP1 HTRF YMIN": 24.3, "EC50": 198}
{"molecule": "N#Cc1cnc2c(cnn2-c2cc(NC3CCCC3)c(-c3cn([C@H]4CC[C@H](CN5CCN(CC(=O)Nc6ccc(C7CCC(=O)NC7=O)cc6)CC5)CC4)nn3)cn2)c1", "note": "(stereo partly shown) [P-40, 2-(4-(((1r,4r)-4-(4-(6-(5-Cyano-1H-pyrazolo[3,4-b]pyridin-1-yl)-4-(cyclopentylamino)pyridin-3-yl)-1H-1,2,3-triazol-1-yl)cyclohexyl)methyl)piperazin-1-yl)-N-(4-(2,6-dioxopiperidin-3-yl)phenyl)acetamide]", "ALE THP1 HTRF YMIN": 20.0, "EC50": 276}
{"molecule": "N#Cc1cnc2c(ccn2-c2cc(NC3CC3)c(C(=O)NC3CCC(CN4CCC(CNc5ccc(C6CCC(=O)NC6=O)cc5)CC4)CC3)cn2)c1", "note": "(stereo not shown) [P-42]", "ALE THP1 HTRF YMIN": 27.6, "EC50": 123}
